Test results reported in article PMC9241695, “Selective Metal Chelation by a Thiosemicarbazone Derivative Interferes with Mitochondrial Respiration and Ribosome Biogenesis in Candida albicans” (Microbiology Spectrum, 2022).
≈ marks a conversion by molar mass, not a printed value.

How the values were obtained:
A. fumigatus AF293 = experiment: Antifungal susceptibility testing, microbroth dilution MIC; assay type: cell-based; conditions: Aspergillus fumigatus, AF293; standard strain of A. fumigatus; 48 h; read-out: MIC (μg/mL) against fungi AF293
From the text: (§1) Compound library. The thiosemicarbazone derivatives Triapine and COTI-2 were purchased from Med Chem Express (MCE). The other 87 thiosemicarbazones used in this study were previously synthesized by our collaborators (1, 2). Their structures are shown in Table 1 and Table S1 to help the reader clearly understand the relationship between structure and activity.
(§2) Strains and culture conditions. Clinically derived C. albicans isolates, including G5, F5, and Gu5, were kindly provided by Professor Joachim Morschhäuser of the University of Würzburg. Other clinical C. albicans isolates were kindly donated by Professor Qingguo Qi of Shandong University and Qianfoshan Hospital of Shandong Province Other Candida strains were obtained from Jinan Central Hospital.
(§3) The zap1 mutant and its complemented strain were kindly provided by Professor Aaron P. Mitchell of Carnegie Mellon University (3). The C. neoformans strains used in this study was kindly donated by Professor Guojian Liao of Southwest University and A. fumigatus strain used in this study was provided by Professor Ling Lu of Nanjing Normal University. […]
(§4) Antifungal susceptibility testing. To determine in vitro antifungal activities, the microbroth dilution method was carried out in RPMI1640 medium according to the guidelines of the Clinical and Laboratory Standards Institute (4, 5). The initial concentration in RPMI1640 medium was 1 × 10^3 CFU/mL for the C. albicans and C. neoformans suspensions but 1 × 10^4 CFU/mL for A. fumigatus. The range of final drug concentrations was 0.0156–64 μg/mL. The plates were incubated at35°C for 24 […]
(§5) h (for C. albicans, C. krusei, C. tropicalis, C. parapsilosis) or 48 h (for C. neoformans, A. fumigatus). The MIC was determined based on visible growth inhibition compared with the control. All experiments were performed in duplicate. […]

C. neoformans H99 = experiment: as above; assay type: cell-based; conditions: Cryptococcus neoformans, H99; C. neoformans wild-type strain; 48 h; read-out: MIC (μg/mL) against fungi H99
From the text: as §1, §2, §3, §4, §5

C. albicans G5 = experiment: microbe, parasite or virus in culture; assay type: cell-based; conditions: Candida albicans, G5
From the text: as §1, §2
as §3, with “University. Before in vitro and in vivo experiments, all C. albicans strains were grown on YPD agar plates. After culturing at 30°C for 24 h, colonies of each strain were cultured in liquid YPD medium at 30°C with continuous shaking” for “University.”
as §4, §5

C. albicans Gu5 = experiment: microbe, parasite or virus in culture; assay type: cell-based; conditions: Candida albicans, GU5
From the text: as §1, §2
as §3, with “University. Before in vitro and in vivo experiments, all C. albicans strains were grown on YPD agar plates. After culturing at 30°C for 24 h, colonies of each strain were cultured in liquid YPD medium at 30°C with continuous shaking” for “University.”
as §4, §5

C. parapsilosis CP001 = experiment: Microbroth dilution MIC80; assay type: cell-based, Candida parapsilosis; conditions: Lodderomyces parapsilosis, CP001
From the text: as §1, §2
as §3, with “University. Before in vitro and in vivo experiments, all C. albicans strains were grown on YPD agar plates. After culturing at 30°C for 24 h, colonies of each strain were cultured in liquid YPD medium at 30°C with continuous shaking” for “University.”
as §4, §5

C. albicans SC5314 [1] = experiment: Minimal fungicidal concentration (MFC); assay type: cell-based; conditions: Candida albicans, read-out: MFC against C. albicans SC5314
C. albicans SC5314 [2] = experiment: RNA-seq transcriptional analysis; assay type: cell-based, Candida albicans
Experimental: C. albicans SC5314 cells were inoculated into RPMI 1640 medium at a concentration of 1 × 10^7 cells/mL and incubated at 30°C for 6 h. The cells were then harvested, and RNA extraction was performed with the Yeast RNA Kit (OMEGA, Guangzhou, China). RNA purity was evaluated using a Nanodrop-2000, and RNA integrity was assessed using the RNA Nano 6000 detection kit. RNA-Seq libraries are prepared using NEB Next Ultra RNA Library Prep Kit (NEB, MA, USA) for Illumina. The cDNA library quality was quantified first by using Qubit 2.0 Fluorometer, detected on Agilent 2100 bioanalyzer. Clustering was performed in the cBot cluster generation system. After cluster generation, the library preparations were sequenced on the Illumina Novaseq platform. Library construction and sequencing were performed by Novogene (Beijing, China). Each sample was analyzed in triplicate.
The raw data in fastq format were first processed by an internal perl script. In this step, clean data were obtained by applying various processing methods. […] The clean reads were individually mapped to the C. albicans SC5314 reference genome using HISAT2 (v2.0.5). The fragments per kilobase of transcript per million mapped reads (FPKM) value was calculated for each gene, and the read counts were mapped to the genes. […] Genes with an adjusted P value < 0.05 and |log2FoldChange| > 1 as detected by DESeq2 were considered DEGs. […]

C. albicans SC5314 cells = experiment: ROS production assay (DCFH-DA); assay type: cell-based, Candida albicans; conditions: 6 h, compared with the control
Experimental: ROS production assay. Logarithmic-phase C. albicans SC5314 cells (1 × 10^6 cells/mL in RPMI1640 medium) were incubated in the presence or absence of 19ak for 6 h, followed by incubation with 2′,7′-dichlorofluorescein diacetate (DCFH-DA) in the dark for 30 min. The fluorescence intensity was then measured by flow cytometry, and the data were analyzed with Win MDI 2.9 software. […]

C/C(=N\NC(=S)N(C)C)c1ccccn1 [Compound 19ak]
MIC (A. fumigatus AF293): 0.5 µg/mL (≈ 2.25 µM) | MIC (C. neoformans H99): 0.5 µg/mL (≈ 2.25 µM) | MIC80 (C. albicans G5): 1 µg/mL (≈ 4.5 µM) | MIC80 (C. albicans Gu5): 0.25 µg/mL (≈ 1.12 µM) | MIC80 (C. parapsilosis CP001): 0.125 µg/mL (≈ 0.562 µM) | MFC (C. albicans SC5314 [1]): 64 µg/mL (≈ 288 µM) | Expression of genes involved in iron and zinc acquisition (C. albicans SC5314 [2]; high dose (2 μg/mL)): downregulated | Expression of genes involved in iron and zinc acquisition (C. albicans SC5314 [2]; low dose (0.5 μg/mL)): strongly induced | ROS formation (DCFH-DA) (C. albicans SC5314 cells): decreased ROS
